Entries after “also recorded” stand apart in the source; their conditions may differ.
Tests used:
human GIP receptor = target: T1, human GIP receptor (Homo sapiens, UniProt P48546); assay: In vitro potency (CRE luciferase; whole cells), BHK CRE luc2P hGIPR; format: cell-based; conditions: 0.2% HSA
T1 construct: expressed in transfected cells; host or cells: BHK (parent line BHKTS13), BHK CRE luc2P hGIPR clone #5
T1 sequence (P48546 22-466): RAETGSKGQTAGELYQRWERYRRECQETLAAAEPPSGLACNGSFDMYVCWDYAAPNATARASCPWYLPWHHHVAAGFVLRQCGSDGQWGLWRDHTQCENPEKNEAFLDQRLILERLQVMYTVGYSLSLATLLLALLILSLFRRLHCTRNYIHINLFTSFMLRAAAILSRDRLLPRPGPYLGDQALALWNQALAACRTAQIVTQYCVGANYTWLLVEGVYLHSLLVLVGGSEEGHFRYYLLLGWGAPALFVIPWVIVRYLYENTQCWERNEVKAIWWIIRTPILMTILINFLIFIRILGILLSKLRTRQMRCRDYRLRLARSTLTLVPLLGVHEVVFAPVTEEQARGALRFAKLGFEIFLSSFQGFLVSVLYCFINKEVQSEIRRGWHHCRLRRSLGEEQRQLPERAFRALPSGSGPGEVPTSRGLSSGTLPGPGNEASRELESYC
Method: (§1) In Vitro Potency (CRE Luciferase; Whole Cells)
(§2) The in vitro potency is the measure of human GIP, GLP-1 or glucagon receptor activation, respectively, in a whole cell assay.
(§3) In vitro potency was determined by measuring the response of the human GIP, GLP-1 or glucagon receptor in a reporter gene assay in individual cell lines. […] When the respective receptor is activated it results in the production of cAMP, which in turn results in the luciferase protein being expressed. When assay incubation is completed the luciferase substrate (luciferin) is added and the enzyme converts luciferin to oxyluciferin to produce bioluminescence. The luminescence is measured as the readout for the assay.
(§4) The cells were derived from a clone containing the CRE luciferase element and were established by further transfection with the respective receptor to obtain the current clone.
(§5) The cells were cultured at 5% CO2 in Cell Culture Medium. They were aliquoted and stored in liquid nitrogen. The cells were kept in passage and were seeded out the day before each assay.
(§6) The Assay Buffer consisted of 1% ovalbumin and 0.1% Pluronic F-68 in Assay Medium with the addition of human serum albumin at twice the indicated concentrations.
(§7) 1) Cells were plated at 5000 cells/well and incubated overnight.
(§8) 2) Cells were washed three times in PBS.
(§9) 3) Assay Medium (50 μl aliquot) with or without serum albumin was added to each well in the assay plate.
(§10) 4) Stocks of the test compounds and reference compounds were diluted to a concentration of 0.2 μM in Assay Buffer. […] 8) The cells were washed three times with PBS plus some liquid in each well. 9) A 100 μl aliquot of steadylite plus reagent was added to each well of the assay plate (reagent was light sensitive). 10) Each assay plate was covered with aluminum foil to protect it from light and shaken for 30 min at room temperature. 11) Each assay plate was read in a microtiter plate reader. Calculations and Results
(§11) The data from the microtiter plate reader was transferred to GraphPad Prism software. The software performs a non-linear regression (log(agonist) vs response).
(§12) A minimum of two replicates was measured for each sample. The reported values are averages of the replicates.

human GLP-1 receptor = target: T2, human GLP-1 receptor (Homo sapiens, UniProt P43220); assay: In vitro potency (CRE luciferase; whole cells), BHK CRE luc2P hGLP-1R; format: cell-based; conditions: 0.2% HSA
T2 construct: expressed in transfected cells; host or cells: BHK (parent line BHKTS13), BHK CRE luc2P hGLP-1R clone #6
T2 sequence (P43220 24-463): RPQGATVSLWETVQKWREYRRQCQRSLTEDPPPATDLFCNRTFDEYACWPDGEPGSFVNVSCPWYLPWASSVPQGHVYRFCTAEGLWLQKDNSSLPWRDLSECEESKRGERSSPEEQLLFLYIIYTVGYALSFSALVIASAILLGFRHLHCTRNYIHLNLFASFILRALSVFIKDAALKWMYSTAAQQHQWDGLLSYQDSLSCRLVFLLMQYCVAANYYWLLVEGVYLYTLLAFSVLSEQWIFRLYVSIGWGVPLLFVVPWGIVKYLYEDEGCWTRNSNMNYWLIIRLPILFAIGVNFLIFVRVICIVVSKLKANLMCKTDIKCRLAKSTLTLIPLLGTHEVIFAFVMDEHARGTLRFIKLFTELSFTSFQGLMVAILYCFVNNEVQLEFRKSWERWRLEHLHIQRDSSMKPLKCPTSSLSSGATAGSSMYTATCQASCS
Method: as §1, §2, §3, §4, §5, §6, §7, §8, §9, §10, §11, §12

[1] = ThT fibrillation assay (physical stability); format: physicochemical; conditions: 250 μM, pH 7.4, 37° C., 45 hours of incubation
Method: The Thioflavin T assay was performed as outlined in Schlein (2017), AAPS J, 19(2), 397-408.
This has traditionally been measured by visual inspection of the sample. However, that kind of measurement is very cumbersome and depending on the observer. Therefore, the application of a small molecule indicator probe is much more advantageous. Thioflavin T (ThT) is such a probe and has a distinct fluorescence signature when binding to fibrils [Naiki et al. (1989) Anal. Biochem. 177, 244-249; LeVine (1999) Methods. Enzymol. 309, 274-284].
The time course for fibril formation can be described by a sigmoidal curve with the following expression [Nielsen et al. (2001) Biochemistry 40, 6036-6046]:
Here, F is the ThT fluorescence at the time t. The constant t0 is the time needed to reach 50% of maximum fluorescence. The two important parameters describing fibril formation are the lag-time calculated by t0−2τ and the apparent rate constant kapp 1/τ.
Few of those intermediates nucleate to form a template onto which further intermediates may assembly and the fibrillation proceeds. The lag-time corresponds to the interval in which the critical mass of nucleus is built up and the apparent rate constant is the rate with which the fibril itself is formed.
Samples are prepared freshly before each assay. The drug substance was solved with 250 μM of the GIP derivative in 8 mM phosphate, 14 mg/mL propylene glycol, 58 mM phenol, pH 7.4. The pH of the sample was adjusted to the desired value using appropriate amounts of concentrated NaOH and HCl. Thioflavin T was added to the samples from a stock solution in H2O to a final concentration of 1 μM.
Sample aliquots of 200 μl were placed in each well of a 96 well microtiter plate (Packard OptiPlate™-96, white polystyrene). Four replica of each sample (corresponding to one test condition) was placed in one column of wells. The plate was sealed with Scotch Pad (Qiagen).
Incubation, shaking and measurement of the ThT fluorescence emission were done in a Fluoroskan Ascent FL fluorescence platereader (Thermo Labsystems). […] Fluorescence measurement was done using excitation through a 444 nm filter and measurement of emission through a 485 nm filter.
Each run was initiated by incubating the plate at the assay temperature for 10 min. The plate was measured every 20 minutes for a desired period of time. Between each measurement, the plate was shaken and heated as described.
After completion of the ThT assay the replica of each sample was pooled and centrifuged at 20000 rpm for 30 minutes at 18° C. The supernatant was filtered through a 0.22 μm filter and an aliquot was transferred to a HPLC vial. The concentration of the filtered sample relative to the initial sample (in percentage) was reported as the recovery.
The measurement points were saved in Microsoft Excel format for further processing and curve drawing and fitting was performed using GraphPad Prism. […] The data points were a mean of the four replica and shown with standard deviation error bars. Only data obtained in the same experiment (i.e. samples on the same plate) were presented in the same graph ensuring a relative measure of fibrillation between experiments.
The data set may be fitted to Eq. (1).

[2] = Dynamic Light Scattering Stability Index (DLS-SI); format: physicochemical; conditions: concentration only 5 μM instead of 250 μM; pH 7.4, 25° C.
[3] = Chemical stability: HMWP formation by SEC-MS; format: physicochemical; conditions: 37° C., 4 weeks, 250 μM, pH 7.4
Method: The aim of this study is to determine the chemical stability of GIP derivative compositions. As a measure of stability of the GIP derivative composition, the formation of high molecular weight peptide formation (% HMWP) as a function of time was analysed by size-exclusion chromatography (SEC-MS). Further, the purity loss of the GIP derivative compositions was measured by LCMS. Samples for chemical stability assays were freshly prepared before each assay. […] The pH of the sample was adjusted to the desired value using appropriate amounts of concentrated NaOH and HCl. […] Formation of covalent oligomers (HMWPs) was analysed and identified by a SEC-MS method. […] The LC system was coupled to both a TUV detector operated at 215 nm, 10 Hz and a high resolution QToF mass spectrometer from Waters (Synapt G2S) operated in positive ion mode and m/z range of 100 to 4000 with normal resolution setting. Lock mass correction against Leu-Enkephalin was done every 31 sec. Spectra were processed in MassLynx version 4.1 and MaxEnt deconvoluted.

[4] = Chemical stability: purity loss by LCMS; format: physicochemical; conditions: 37° C., 4 weeks, 250 μM, pH 7.4
Method: The aim of this study is to determine the chemical stability of GIP derivative compositions. As a measure of stability of the GIP derivative composition, the formation of high molecular weight peptide formation (% HMWP) as a function of time was analysed by size-exclusion chromatography (SEC-MS). Further, the purity loss of the GIP derivative compositions was measured by LCMS. Samples for chemical stability assays were freshly prepared before each assay. […] The pH of the sample was adjusted to the desired value using appropriate amounts of concentrated NaOH and HCl. […] The column oven was kept at 55° C. […] The solvents were pumped from a binary solvent manager system and mixed on the high pressure side in a mixer with a volume of 50 μl. The gradient and flow can be seen in table 4: [table] A Flow-through-needle auto sampler at 8° C. was used to inject 1 μl of each sample. The effluent passed through a tunable UV detector (TUV) tuned to 215 nm. The outlet from the UV detector passed to the electrospray source of the mass spectrometer. The capillary was held at 3 kV and dry nitrogen gas was purged at a flow of 750 I/h and a temperature of 250° C. The source block was kept at 120° C. and the large bore cone was flushed with nitrogen at 50 I/h with standard electrode potentials on the rest of the instrument. The MS was operated in high resolution mode with a nominal resolution of 35000. The ToF analyser was operated in ADC mode with an m/z window from 100-2000.

Row | EC50 (human GIP receptor) [nM] | EC50 (human GLP-1 receptor) [nM] | ThT Assay Lag time [1] [h] | HMWP formation (%/month) [3] [%/month] | Purity loss (%/month) [4] [%/month] | Compound | DLS-SI precipitates [2]
1 | 0.0212 | > 100 |  |  |  | CCCC[C@H](NC(=O)[C@H](C)NC(=O)[C@@H](NC(=O)[C@H](CO)NC(=O)[C@H](Cc1ccc(O)cc1)NC(=O)[C@H](CC(=O)O)NC(=O)[C@H](CO)NC(=O)[C@@H](NC(=O)[C@H](Cc1ccccc1)NC(=O)[C@@H](NC(=O)CNC(=O)[C@H](CCC(=O)O)NC(=O)C(C)(C)NC(=O)[C@@H](Cc1ccc(O)cc1)NC(C)=O)[C@@H](C)O)[C@@H](C)CC)[C@@H](C)CC)C(=O)N[C@@H](CC(=O)O)C(=O)N[C@@H](CCCCN)C(=O)N[C@H](C(=O)N[C@@H](CCCNC(=N)N)C(=O)N[C@@H](CCC(N)=O)C(=O)N[C@@H](CCC(N)=O)C(=O)N[C@@H](CC(=O)O)C(=O)N[C@@H](Cc1ccccc1)C(=O)N[C@H](C(=O)N[C@@H](CCCCNC(=O)CC[C@H](NC(=O)CC[C@H](NC(=O)CC[C@H](NC(=O)CCCCCCCCCCCCCCCCC(=O)O)C(=O)O)C(=O)O)C(=O)O)C(=O)N[C@@H](Cc1c[nH]c2ccccc12)C(=O)N[C@@H](CC(C)C)C(=O)N[C@@H](CC(C)C)C(=O)N[C@@H](C)C(=O)N[C@@H](CCC(N)=O)C(=O)N[C@@H](CCCCN)C(=O)N1CCC[C@H]1C(N)=O)C(C)C)[C@@H](C)CC [Compound 46, N{1}-acetyl,N{Epsilon-24}-[(4S)-4-carboxy-4-[[(4S)-4-carboxy-4-[[(4S)-4-carboxy-4-(17-carboxyheptadecanoylamino)butanoyl]amino]butanoyl]amino]butanoyl]-[D-Tyr1,Aib2,Nle14,Arg18,Lys24,Pro31]-hGIP(1-31) amide] | 
2 | 0.00224 |  | 0 | 0.15 | 86.9 | CC[C@H](C)[C@H](NC(=O)[C@H](CO)NC(=O)[C@H](Cc1ccc(O)cc1)NC(=O)[C@H](CC(=O)O)NC(=O)[C@H](CO)NC(=O)[C@@H](NC(=O)[C@H](Cc1ccccc1)NC(=O)[C@@H](NC(=O)CNC(=O)[C@H](CCC(=O)O)NC(=O)[C@H](C)NC(=O)[C@@H](N)Cc1ccc(O)cc1)[C@@H](C)O)[C@@H](C)CC)C(=O)N[C@@H](C)C(=O)N[C@@H](CCSC)C(=O)N[C@@H](CC(=O)O)C(=O)N[C@@H](CCCCN)C(=O)N[C@H](C(=O)N[C@@H](Cc1c[nH]cn1)C(=O)N[C@@H](CCC(N)=O)C(=O)N[C@@H](CCC(N)=O)C(=O)N[C@@H](CC(=O)O)C(=O)N[C@@H](Cc1ccccc1)C(=O)N[C@H](C(=O)N[C@@H](CC(N)=O)C(=O)N[C@@H](Cc1c[nH]c2ccccc12)C(=O)N[C@@H](CC(C)C)C(=O)N[C@@H](CC(C)C)C(=O)N[C@@H](C)C(=O)N[C@@H](CCC(N)=O)C(=O)N[C@@H](CCCCN)C(=O)NCC(=O)O)C(C)C)[C@@H](C)CC [hGIP(1-31), reference compound] | visible as precipitation; also recorded: Yes^##

— patent publication US10604555B2, “GIP derivatives and uses thereof” (priority 2018, dated 2020)
